# Columns and labels:
# [1] = tested on: rat mono-iodoacetate (MIA) model of joint pain; experiment: Rat mono-iodoacetate (MIA) model of joint pain, weight bearing asymmetry; type: in vivo; conditions: unformulated, 29 μg/ml (69 μM) in 5 μl intra-articular, 3 days post MIA
# Description: All studies were carried out in a rat mono-iodoacetate (MIA) model of joint pain as a screen for analgesia of pain driven by joint inflammation and destruction (see Ivanavicius et al., 2007 Pain 128 p272). The MIA model induces an early synovitis (day 3) followed by progressive loss of articular cartilage, and subchondral bone pathology by day 14.
# N-{5-[(cyclopropylamino)carbonyl]-2-methylphenyl}-3-fluoro-4-(pyridin-2-ylmethoxy)benzamide was formulated into PLGA microspheres (50:50 PLGA as in Example 1) and tested in the MIA model. Rats were injected intra-articularly with MIA on day 0. Three days post MIA (to allow disease to progress) animals were injected intra-articularly with formulated N-{5-[(cyclopropylamino)carbonyl]-2-methylphenyl}-3-fluoro-4-(pyridin-2-ylmethoxy)benzamide in 50:50 PLGA (200 μg/30 μl) or with microsphere formulation ([…]).
# A dose of 29 μg/ml (69 μM) of N-{5-[(cyclopropylamino)carbonyl]-2-methylphenyl}-3-fluoro-4-(pyridin-2-ylmethoxy)benzamide was delivered in a 5 μl injection volume to give a Cmin concentration of 1 μM at 1.5 hours. The dosing was carried out 3 days post MIA at the same time point that formulated N-{5-[(cyclopropylamino)carbonyl]-2-methylphenyl}-3-fluoro-4-(pyridin-2-ylmethoxy)benzamide as the PA were dosed. […]
# [2] = Synovial fluid pharmacokinetics after intra-articular injection of unformulated PA; type: in vivo; conditions: rat, 15 ng in 5 μl intra-articular
# Description: Unformulated N-{5-[(cyclopropylamino)carbonyl]-2-methylphenyl}-3-fluoro-4-(pyridin-2-ylmethoxy)benzamide was intra-articularly injected (15 ng in 5 μl injection in PBS) to rats and synovial fluid concentrations were determined at 15, 30 and 60 minutes post dose. The synovial fluid from the rat knee joint was sampled using a knee wash methodology. The knee was exposed and a transverse cut made to the patellar tendon proximal to the tibia. The knee cavity was opened up by dissection, and the knee lavaged between the tibial and femoral condyles with 3×25 μl PBS using an eppendorf pipette.
# [3] = Hydrolytic stability of PA in the acidic microclimate of the degrading polymer; type: physicochemical; conditions: acidic microclimate created upon degradation of the polymer
# [4] = Systemic pharmacokinetic parameters in the rat; type: in vivo; set-up: systemic Vdss: unit not given here
smiles,measurement,setting,value
"Cc1ccc(C(=O)NC2CC2)cc1NC(=O)c1ccc(OCc2ccccn2)c(F)c1 [PA, N-{5-[(cyclopropylamino)carbonyl]-2-methylphenyl}-3-fluoro-4-(pyridin-2-ylmethoxy)benzamide]",efficacy in MIA model (% weight distribution),[1],no efficacy
same,Clearance (Cl),[2],61 µL/h
same,Volume of distribution (Vdss),[2],9 µL
same,half-life,[2]; read-out: Half-life (t1/2) (converted),12 min
same,hydrolytic stability,[3],hydrolytically stable
same,systemic Vdss,[4],1.71 kg⁻¹
same,clearance,"[4]; in vivo, read-out: systemic Cl",14 mL/min/kg

# Source: patent US20170135996A1, “PHARMACEUTICAL DEPOT FOR N-{5-[(CYCLOPROPYLAMINO)CARBONYL]-2-METHYLPHENYL)-3-FLUORO-4-(PYRIDIN-2-YLMETHOXY)BENZAMIDE” (AstraZeneca AB, priority 2008, published 2017)
